System: filaggrin
Assay: Filaggrin expression in normal human keratinocytes (NHEK), in-situ immunolabelling
Assay type: cell-based
Settings: 72 hours incubation; for Mean filaggrin (AU): fluorescence intensity relative to number of cells, control 12261; for Mean filaggrin (AU) / % relative to the control (filaggrin): truffle extracts 4.5·10^−3% by weight of active material, Neohesperidin DHC 0.3 mg/ml, CaCl2 1.5 mM; for increase of filaggrin protein expression relative to the control: same concentrations as in the table, change versus control; for % relative to the control (filaggrin): control = 100
From the text: The in vitro effect of the combination of neohesperidin dihydrochalcone (neohesperidin DHC) and an extract of black (Périgord) truffle (Tuber melanosporum) and/or an extract of white (summer) truffle (Tuber aestivum) on keratinocyte differentiation is studied. The expression and the location of the marker of filaggrin differentiation are especially studied in keratinocytes in culture which thus makes it possible to evaluate the ability of these combinations to increase the differentiation of these cells. The culture medium is: Keratinocyte-SFM supplemented with: • 0.25 ng/ml Epidermal Growth Factor (EGF); • 25 μg/ml pituitary extract (PE); • 25 μg/ml Gentamicin; The test medium is Keratinocyte-SFM supplemented with 25 μg/ml Gentamicin. The keratinocytes were seeded into 96-well plates and cultured in culture medium for 168 hours with renewal of the culture medium after 24 and 96 hours of incubation. […] All the experimental conditions were carried out in n=3, except the control condition which was carried out in n=6. After incubation, the medium was eliminated and the cells were rinsed, fixed and permeabilized. The cells were then labelled with the primary antibody (see Table A) directed against the protein of interest (filaggrin). […] At the same time, the nuclei of the cells were stained with Hoechst 33258 (bisbenzimide). [table] The image acquisition was carried out with an INCellAnalyzer™ 1000 (GE Healthcare) high-resolution imaging system. For each well, 10 digitized images were captured for each immunolabelling (×20 objective).

## [Ca+2].[Cl-].[Cl-] [CaCl2, calcium chloride]
  Mean filaggrin (AU): 74795 AU
  increase of filaggrin protein expression relative to the control: +510%
  % relative to the control (filaggrin): 610%

## COc1ccc(CCC(=O)c2c(O)cc(O[C@@H]3O[C@H](CO)[C@@H](O)[C@H](O)[C@H]3O[C@@H]3O[C@@H](C)[C@H](O)[C@@H](O)[C@H]3O)cc2O)cc1O [Neohesperidin DHC, 1-(4-((2-O-[6-Deoxy-α-L-mannopyranosyl]-β-D-glucopyranosyl)oxy)-2,6-dihydroxyphenyl)-3-[3-hydroxy-4-methoxyphenyl]-1-propanone]
  Mean filaggrin (AU): 18840 AU
  increase of filaggrin protein expression relative to the control: +54%
  % relative to the control (filaggrin): 154%

Source: US20190380941A1, “COMPOSITION COMPRISING A TRUFFLE EXTRACT AND NEOHESPERIDIN DIHYDROCHALCONE” (L'OREAL, priority 2016, published 2019)
